Where a name gives a salt, the structure may show the parent alone.
Experiment: Inhibition of rat brain Na(+)/K(+) ATPase

Compound	IC50
CC(C)=CCC/C(C)=C/CC/C(C)=C/CC/C(C)=C/CC/C(C)=C/CC/C(C)=C/CC/C(C)=C/Cc1cc(OS(=O)(=O)O)ccc1OS(=O)(=O)O [DISODIUM SARCOHYDROQUINONE SULFATE B]	1400 nM
CC(C)=CCC/C(C)=C/CC/C(C)=C/CC/C(C)=C/CC/C(C)=C/CCC1(C)C=Cc2cc(OS(=O)(=O)O)ccc2O1 (configuration not stated) [SODIUM SARCOCHROMENOL SULFATE A]	1600 nM
